Source: patent publication US6468729B2, “Silver halide photographic light-sensitive material” (Fuji Photo Film Co., Ltd., priority 2000, dated 2002)

Assay: pKa measurement by titration (AT-210 device, neutralization middle point)
Assay type: physicochemical
Details: —NHSO2— dissociation group, 25° C., THF/H2O=6/4
Method: The measurement of the pKa value in the present invention will be described below. […] 20 mL of H2O were then added to completely dissolve the material. Subsequently, 0.25 mL of an aqueous 0.2 N hydrochloric acid solution was added, and the resultant solution was stirred. An aqueous 0.2 N NaOH solution was dropped into this solution, and the pKa value was obtained from the neutralization middle point. All pKa values in the present invention were obtained under the above measurement conditions.

**Q.** For `CCCCCCCCCCCCCCCC(C(=O)O)C(=O)Nc1cccc(C(=O)Nc2ccc(CCCc3n[nH]c4cc(C(C)(C)C)nn34)cc2)c1` (centres unmarked) [Compound G-2], which pKa value is on record?
**A.** more than 12

**Q.** Which pKa value does the source give for `CCCCCCCCOc1ccc(NS(=O)(=O)c2cc(C(C)(C)CC(C)(C)C)ccc2OCCCCCCCC)cc1S(=O)(=O)NCC(C)c1n[nH]c2c(Cl)c(C(C)(C)C)nn12` (centres unmarked) [Compound G-6] here?
**A.** more than 12

**Q.** For `CCCCCCCCOc1ccc(C(C)(C)CC(C)(C)C)cc1S(=O)(=O)Nc1cc(S(=O)(=O)Nc2c(C)cc(C)c(-c3n[nH]c4cc(CC)nn34)c2C)ccc1Cl` [Compound G-3], which pKa value is on record?
**A.** more than 12

**Q.** Which pKa value does the source give for `CCCCCCCCOc1ccc(NS(=O)(=O)c2cc(C(C)(C)CC(C)(C)C)ccc2OCCOc2ccc(C)cc2)cc1S(=O)(=O)NC(C)c1n[nH]c2cc(C(C)(C)C)nn12` (centres unmarked) [Compound G-4] here?
**A.** more than 12

**Q.** Which pKa value does the source give for `CCCCCCCCOc1ccc(C(C)(C)CC(C)(C)C)cc1S(=O)(=O)Nc1ccc(OCCOC)c(S(=O)(=O)NC(C)(C)c2n[nH]c3c(Cl)c(C(C)(C)C)nn23)c1` [Compound G-5] here?
**A.** more than 12

**Q.** With `CCCCCCCCCCCCCCCCCCOc1ccc(C(C)(C)C)cc1S(=O)(=O)NC(C)c1n[nH]c2cc(C(C)(C)C)nn12` (centres unmarked) [Compound G-1] as the compound, how does the pKa value read?
**A.** more than 12

**Q.** Which pKa value does the source give for `CCCCCCCCOc1ccc(NS(=O)(=O)c2cc(C(C)(C)CC(C)(C)C)ccc2OCCCCCCCC)cc1S(=O)(=O)NCC(C)c1n[nH]c2cc(CC)nn12` (centres unmarked) [Compound G-9] here?
**A.** more than 12

**Q.** Which pKa value does the source give for `CCCCCCCCCCCCC(Oc1ccc(NS(=O)(=O)c2ccc(S(N)(=O)=O)cc2)cc1)c1n[nH]c2c(Cl)c(C)nn12` (centres unmarked) [Compound G-7] here?
**A.** more than 12
